Assays:
[1] = molecular target: T1, β5i (Homo sapiens, UniProt P20618+P28062); assay: Cell-Based Proteasome Activity/Selectivity Assay (Ramos cells), substrate (ANW)2Rh110; conditions: highest concentration tested 20 μM, read-out: Ic50 ramos:ac-(anw)2-r110
T1 construct: protease activity associated with the proteasome complex in cultured cells; endogenous in cells; host or cells: Ramos cells
Source text: (§1) Cell-Based Proteasome Activity/Selectivity Assay
(§2) The Cell-Based Proteasome subunit activity/selectivity assay was a panel of 5 fluorogenic assays that independently measured the activity of β5c or β5i (chymotrypsin-like activity), β2c/2i (trypsin-like), and β1c or β1i (caspase-like) protease activity associated with the proteasome complex in cultured cells. Specifically, the following substrates were used for respective subunit activities: β1i: (PAL)2Rh110, β1c: (LLE)2 Rh110, β2c/2i: (KQL)2Rh110, β5c: (WLA)2Rh110, β5i: (ANW)2Rh110. The following procedure was followed:
(§3) Cell preparation: Plated 25 μl of Ramos cells (2×10^6/ml in DPBS) into half area plate (PerkinElmer Cat 6005569) to final 5×10^4 cells/well. Added 0.5 μl of 100×4-fold serial diluted test compounds or DMSO to each well. Highest concentration of compound tested was 20 μM, thus compound serial dilution started from […]. Incubated for 30 minutes at 37° C. Then equilibrated at room temperature for 15 minutes. Added 25 μl of 2× reaction mix consisting of 0.025% digitonin, 20 μM of each substrates and 0.5M sucrose in DPBS. Shaked for one minute @ 700 rpm. Incubated for 120 min at room temperature. Then read the plates with an Envision multilabel plate reader (PerkinElmer) with 500 nm excitation/519 nm emission.

[2] = molecular target: T2, β5c (Homo sapiens, UniProt P20618+P28074); assay: Cell-Based Proteasome Activity/Selectivity Assay (Ramos cells), substrate (WLA)2Rh110; conditions: highest concentration tested 20 μM
T2 construct: protease activity associated with the proteasome complex in cultured cells; endogenous in cells; host or cells: Ramos cells
Source text: as §1, §2, §3

[3] = system: β2c/2i; assay: Cell-Based Proteasome Activity/Selectivity Assay (Ramos cells), substrate (KQL)2Rh110; conditions: highest concentration tested 20 μM
Source text: as §1, §2, §3

[4] = molecular target: T3, β1i (Homo sapiens, UniProt P28065+P40306); assay: Cell-Based Proteasome Activity/Selectivity Assay (Ramos cells), substrate (PAL)2Rh110; conditions: highest concentration tested 20 μM
T3 construct: protease activity associated with the proteasome complex in cultured cells; endogenous in cells; host or cells: Ramos cells
Source text: as §1, §2, §3

[5] = molecular target: T4, β1c (Homo sapiens, UniProt P28072+Q99436); assay: Cell-Based Proteasome Activity/Selectivity Assay (Ramos cells), substrate (LLE)2 Rh110; conditions: highest concentration tested 20 μM
T4 construct: protease activity associated with the proteasome complex in cultured cells; endogenous in cells; host or cells: Ramos cells
Source text: as §1, §2, §3

[6] = system: IP10 level in PBMCs stimulated with CpG Type A; assay: PBMC IP-10 Assay; assay type: cell-based; conditions: CpG Type A 2.5 μM
Protocol: PBMCs were isolated from whole blood as follows: Blood was collected in a sterile environment in heparinized tubes. Blood was diluted with an equal volume PBS/2% FCS and 30 ml of this mixture was added to ACCUSPIN tubes containing 15 ml Histopaque-1077 already centrifuged at 800 g for 30 seconds and warmed up at room temperature. The tubes were then centrifuged at 800 g for 20 minutes at room temperature with no brake. The mononuclear band, just above the polyethylene frit, was removed by Pasteur pipet. These mononuclear cells were washed three times with sterile PBS, counted, and resuspended in RPMI 1640 supplemented with 10% heat inactivated fetal calf serum, 10 mM HEPES, 1 mM sodium pyruvate, penicillin (50 U/ml), streptomycin (50 μg/ml) and glutamine (2 mM) to approximately 1.5×10^6/ml. Approximately 2×10^5 cells/well were plated in 96 well tissue culture plates (BD Falcon 353072), and preincubated 60 mi/37° C. with a titration of compounds, in a final concentration of 1% DMSO. Cells were then stimulated with CpG Type A (Invivogen, Cat #tlrl-2216; ODN 2216) at a final concentration of 2.5 μM. Cells were incubated overnight, and supernatants were removed. PBMC viability of cells remaining in the well was measured with ATPlite luminescence assay (Perkin-Elmer) per the manufacturer's instructions. Luminescence was measured on the Perkin-Elmer Envision, using the luminescence filter. IP10 level was measured with CXCL10/IP10 AlphaLISA kit (Perkin-Elmer) per the manufacturer's instructions, except halving all volumes. Fluorescence was measured on the Envision Multilabel plate reader, using the AlphaScreen standard settings.

| SMILES | IC50 [1] [nM] | IC50 [2] [nM] | IC50 [3] [nM] | IC50 [4] [nM] | IC50 [5] [nM] | EC50 [6] [nM] |
| --- | --- | --- | --- | --- | --- | --- |
| CCCC[C@H](NC(=O)[C@H](Cc1ccc(OC)cc1)NC(=O)[C@H](C)NC(=O)CN1CCOCC1)C(=O)C(=O)NC [Example 14, (S)-3-{(S)-3-(4-Methoxy-phenyl)-2-[(S)-2-(2-morpholin-4-yl-acetylamino)-propionylamino]-propionylamino}-2-oxo-heptanoic acid methylamide] | 699 | 16500 | > 20000 | 426 | > 20000 | 5180 |
| C[C@H](NC(=O)OCc1ccccc1)C(=O)N[C@@H](Cc1c[nH]c2ccccc12)C(=O)N[C@@H](Cc1ccccc1)C(=O)C(=O)NCc1ccccc1 [Example 16, {(S)-1-[(S)-1-((S)-1-Benzyl-2-benzylcarbamoyl-2-oxo-ethylcarbamoyl)-2-(1H-indol-3-yl)-ethylcarbamoyl]-ethyl}-carbamic acid benzyl ester] | 17 | 926 | > 20000 | 274 | 18300 | 1330 |
| CCCC[C@H](NC(=O)[C@H](Cc1ccc(OC)cc1)NC(=O)[C@H](C)NC(=O)CN1CCOCC1)C(=O)C(=O)NCc1ccccc1 [Example 3, (S)-3-{(S)-3-(4-Methoxy-phenyl)-2-[(S)-2-(2-morpholin-4-yl-acetylamino)-propionylamino]-propionylamino}-2-oxo-heptanoic acid benzylamide] | 394 | 3200 | > 20000 | 560 | > 20000 | 7960 |
| C[C@H](NC(=O)C1Cc2ccccc2C1)C(=O)N[C@@H](CCc1ccccc1)C(=O)N[C@@H](Cc1ccccc1)C(=O)C(=O)NCc1ccccc1 [Example 42, Indan-2-carboxylic acid {(S)-1-[(S)-1-((S)-1-benzyl-2-benzylcarbamoyl-2-oxo-ethylcarbamoyl)-3-phenyl-propylcarbamoyl]-ethyl}-amide] | 4 | 14 | > 20000 | 968 | 18100 | 379 |
| COc1ccc(C[C@H](NC(=O)[C@H](C)NC(=O)OCc2ccccc2)C(=O)N[C@@H](Cc2ccccc2)C(=O)C(=O)NCc2ccccc2)cc1 [Example 17, {(S)-1-[(S)-1-((S)-1-Benzyl-2-benzylcarbamoyl-2-oxo-ethylcarbamoyl)-2-(4-methoxy-phenyl)-ethylcarbamoyl]-ethyl}-carbamic acid benzyl ester] | 7 | 988 | > 20000 | 417 | > 20000 | 939 |
| CCCC[C@H](NC(=O)[C@H](Cc1c[nH]c2ccccc12)NC(=O)[C@H](C)NC(=O)C1Cc2ccccc2C1)C(=O)C(=O)NCc1ccccc1 [Example 11, Indan-2-carboxylic acid {(S)-1-[(S)-1-((S)-1-benzylaminooxalyl-pentylcarbamoyl)-2-(1H-indol-3-yl)-ethylcarbamoyl]-ethyl}-amide] | 14 | 473 | 8040 |  | 2980 | 1220 |

More lines, in order of falling IC50 [1], values ahead:

| IC50 [1] [nM] | IC50 [2] [nM] | IC50 [3] [nM] | IC50 [4] [nM] | IC50 [5] [nM] | SMILES | EC50 [6] [nM] |
| --- | --- | --- | --- | --- | --- | --- |
| 709 | 1900 | > 20000 | 275 | > 20000 | CCCC[C@H](NC(=O)[C@H](Cc1c[nH]c2ccccc12)NC(=O)[C@H](C)NC(=O)CN1CCOCC1)C(=O)C(=O)NCc1ccccc1 [Example 10, (S)-3-{(S)-3-(1H-Indol-3-yl)-2-[(S)-2-(2-morpholin-4-yl-acetylamino)-propionylamino]-propionylamino}-2-oxo-heptanoic acid benzylamide] |  |
| 403 | 2960 | > 20000 |  | 9560 | CCCC[C@H](NC(=O)[C@H](Cc1c[nH]c2ccccc12)NC(=O)[C@H](C)NC(=O)c1ccnn1C)C(=O)C(=O)NCc1ccccc1 [Example 13, 2-Methyl-2H-pyrazole-3-carboxylic acid {(S)-1-[(S)-1-((S)-1-benzylaminooxalyl-pentylcarbamoyl)-2-(1H-indol-3-yl)-ethylcarbamoyl]-ethyl}-amide] | 3970 |
| 275 | 2060 | 11900 | 218 | 5620 | COc1ccc(C[C@H](NC(=O)[C@H](C)NC(=O)c2cnccn2)C(=O)N[C@@H](Cc2ccccc2)C(=O)C(=O)NCc2ccccc2)cc1 [Example 29, Pyrazine-2-carboxylic acid {(S)-1-[(S)-1-((S)-1-benzyl-2-benzylcarbamoyl-2-oxo-ethylcarbamoyl)-2-(4-methoxy-phenyl)-ethylcarbamoyl]-ethyl}-amide] | 4170 |
| 176 | 5770 | > 20000 | 8920 | > 20000 | C[C@H](NC(=O)c1cc(C(F)(F)F)nn1C)C(=O)N[C@@H](Cc1ccccc1)C(=O)N[C@@H](Cc1ccccc1)C(=O)C(=O)NCc1ccccc1 [Example 55, 2-Methyl-5-trifluoromethyl-2H-pyrazole-3-carboxylic acid {(S)-1-[(S)-1-((S)-1-benzyl-2-benzylcarbamoyl-2-oxo-ethylcarbamoyl)-2-phenyl-ethylcarbamoyl]-ethyl}-amide] | 3880 |
| 66 | 1680 | > 20000 | 609 | 18500 | CCn1nccc1C(=O)N[C@@H](C)C(=O)N[C@@H](Cc1ccccc1)C(=O)N[C@@H](Cc1ccccc1)C(=O)C(=O)NCc1ccccc1 [Example 54, 2-Ethyl-2H-pyrazole-3-carboxylic acid {(S)-1-[(S)-1-((S)-1-benzyl-2-benzylcarbamoyl-2-oxo-ethylcarbamoyl)-2-phenyl-ethylcarbamoyl]-ethyl}-amide] | 3450 |
| 47 | 2480 | 10000 | 569 | 12500 | C[C@H](NC(=O)c1ccnn1C)C(=O)N[C@@H](Cc1c[nH]c2ccccc12)C(=O)N[C@@H](Cc1ccccc1)C(=O)C(=O)NCc1ccccc1 [Example 30, 2-Methyl-2H-pyrazole-3-carboxylic acid {(S)-1-[(S)-1-((S)-1-benzyl-2-benzylcarbamoyl-2-oxo-ethylcarbamoyl)-2-(1H-indol-3-yl)-ethylcarbamoyl]-ethyl}-amide] | 4090 |
| 40 | 4520 | > 20000 | 5060 | 12900 | COc1ccc(C[C@H](NC(=O)C2(NC(=O)C3Cc4ccccc4C3)CC2)C(=O)N[C@@H](Cc2ccccc2)C(=O)C(=O)NCc2ccccc2)cc1 [Example 27, Indan-2-carboxylic acid {1-[(S)-1-((S)-1-benzyl-2-benzylcarbamoyl-2-oxo-ethylcarbamoyl)-2-(4-methoxy-phenyl)-ethylcarbamoyl]-cyclopropyl}-amide] | 4870 |
| 36 | 381 | > 20000 |  | 5430 | CCCC[C@H](NC(=O)[C@H](Cc1c[nH]c2ccccc12)NC(=O)[C@H](C)NC(=O)c1cccc(Cl)c1Cl)C(=O)C(=O)NCc1ccccc1 [Example 12, N-{(S)-1-[(S)-1-((S)-1-Benzylaminooxalyl-pentylcarbamoyl)-2-(1H-indol-3-yl)-ethylcarbamoyl]-ethyl}-2,3-dichloro-benzamide] | 2610 |

— US20150274777A1, “KETOAMIDE IMMUNOPROTEASOME INHIBITORS” (HOFFMANN-LA ROCHE INC., priority 2012, published 2015)
